Patent US20100210697A1, “PHARMACEUTICAL COMPOSITION FOR TREATMENT OF CATARACT” (R-TECH UENO, LTD., priority 2007, published 2010)

Tests used:
STZ induced diabetic rat = assay: Cataract onset in STZ induced diabetic rats, repeated instillation into both eyes; type: in vivo, Rats (Crj: Wistar); conditions: for number of onset eyes / onset of cataract (conclusion in words): Day 46; for number of onset eyes / onset rate (Day 46): instilled 10 μL per eye, 3 times a day, test substance 1 0.01 wt %, test substance 2 2 wt %; for number of onset eyes: onset eyes/total eyes; for onset of cataract (conclusion in words): STZ induced diabetic rats, instillation; for onset rate (Day 46): saline pathology group 100%
Method: Rats (Crj: Wistar, male, 5-week-old) were purchased, grouped after acclimation for 6 days, and fasted for 20 hr.
After the fasting, Streptosotocin (hereinafter STZ, 50 mg/kg (2 mL/kg)) was administered to the tail vein.
After 24 hr from the STZ administration, the blood glucose level was measured, and the rats with blood glucose level of not less than 250 mg/dL were considered as STZ induced diabetic rat (measurement tool: ACCU-CHEK Aviva, Roche Diagnostics K.K.) (group 2-group 4).
From the next day of the blood glucose level measurement, saline, test substance 1 and test substance 2 were repetitively instilled to groups 2-4 into both eyes (10 μL for each eye) 3 times a day (9:00, 13:00, 17:00). The cataract suppression rate of the test substance at the time point when the onset of the pathology model group 2 reached 100% (Day 46) was determined. Saline was repetitively instilled in the same manner to the group free of streptosotocin administration (group 1).
In addition, the day when the nuclear part of the crystalline lens became obviously opaque was taken as the cataract onset day.
cataract onset rate: (number of cataract onset eyes/total number of eyes ×100)

[1] = tested on: rats given powder feed with 30% of galactose; assay: Cataract onset in rats fed 30% galactose feed, repeated oral administration; type: in vivo, Rats (Crj: Wistar)
From the text: Rats (Crj: Wistar, male, 3-week-old) were purchased and, from the next day (Day 0), a mixture of a powder feed (CRF-1, Oriental Yeast Co., ltd.) and 30% of galactose (special grade, Wako Pure Chemical Industries, Ltd., Lot# 075-00035) was freely given. From Day 0, test substance 1 was repetitively administered orally.
dissolution liquid: 0.5% methylcellulose solution test substance 1: N-{4-[2-(4-hydrazinocarbonylmethylphenyl)ethyl]-1,3-thiazol-2-yl}acetamide (compound described in Production Example)

Row | Compound | number of onset eyes (STZ induced diabetic rat) | onset of cataract (conclusion in words) (STZ induced diabetic rat) | onset rate (Day 46) (STZ induced diabetic rat) [%] | number of onset eyes (Day 20) ([1]; Day 20, oral, 0.5 wt %, 2 mL/kg once per day, vehicle group 8/12 eyes) | onset of cataract (conclusion in words) ([1]; galactose-fed rats, oral administration, 20 days)
1 | CC(=O)Nc1nc(CCc2ccc(CCNC(=N)N)cc2)cs1 [test substance 2, N-(4-{2-[4-(2-{[amino(imino)methyl]amino}ethyl)phenyl]ethyl}-1,3-thiazol-2-yl)acetamide] | 2/10 | suppress the onset of cataract | 20 |  | 
2 | CC(=O)Nc1nc(CCc2ccc(CC(=O)NN)cc2)cs1 [test substance 1, N-{4-[2-(4-hydrazinocarbonylmethylphenyl)ethyl]-1,3-thiazol-2-yl}acetamide] | 2/8 | suppress the onset of cataract | 25 | 3/12 eyes | suppresses the onset of cataract
